One assay deals with ASD-related symptoms. Particulars: cited from earlier work.
For assay [1], the system named is FOCM/TS metabolic profiles of individuals with ASD. Nature of the assay: FDA model evaluation of clinical trial treatment data (Type II error and discriminant score shift). The assay is classed as in vivo, children. Particulars: for Post-treatment Type II Error: PDF of post-treatment discriminant scores with respect to H0, 12 weeks (BH4: average of 8 and 16 weeks); for change in Type II error / correction of metabolic abnormalities (in words): comparison among treatments; for Effect Size (95% CI): median paired pre-to-post-treatment change in discriminant score, CI by bootstrap, 10,000 replications; for Change in Type II Error: pre- to post-treatment, with respect to H0. The procedure:
MeCbl+LDFA Treatment Data. Subcutaneously injected MeCbl (75 μg/kg, once every three days) in combination with oral LDFA (400 μg, twice per day) was given to children with autism in a 12-week open-label trial. Included children were aged 2 to 7 years and met the diagnostic criteria for autism as defined by the DSM-IV in addition to having a Childhood Autism Rating Scales score greater than 30. Boys and girls made up 82% and 18% of participants in this study, respectively. The IRB at the University of Arkansas for Medical Sciences approved the protocol for this study.
BH4 Treatment Data. A 16-week open-label trial investigated the effects of orally administered BH4 (20 mg/kg, once per day) in children aged 2 to 6 years old with a previous diagnosis of ASD that was confirmed at the time of evaluation with DSM-IV criteria. […] Study participants were 90% males. Approval for this study was given by the IRB at the University of Texas Health Science Center at Houston, Tex. FOCM/TS markers were measured at 8 and 16 weeks following the onset of treatment in this trial; to maintain consistency with the other trials where markers were measured after 12 weeks, the averages of the measurements taken at 8 and 16 weeks were used.
HDFA Treatment Data. A double-blind placebo-controlled trial of HDFA (2 mg/kg per day up to a maximum of 50 mg daily, given orally) was administered over 12 weeks to children between 3 and 14 years of age. ASD diagnoses were made using the Autism Diagnostic Observation Schedule and/or Autism Diagnostic Interview—Revised, or by agreement between physician, psychologist, and speech therapist, or by a physician's diagnosis according to the Diagnostic and Statistical Manual of Mental Disorders, Fifth Edition with later confirmation by the investigators. All children were required to have documented language impairment. 78% of the treatment group were male while 80% of the placebo group were male. The protocol was approved by the IRB at the University of Arkansas for Medical Sciences. All data for participants receiving a placebo in the current analysis were provided.
Biochemical Measurements. Concentrations and ratios of metabolites in the FOCM and TS pathways were measured in each of the above studies, with fifteen measurements appearing in all four data sets. Six of these measures were associated with DNA methylation: methionine, S-adenosylmethionine (SAM), S-adenosylhomocysteine (SAH), the SAM/SAH ratio (an indicator of DNA methylation capacity), homocysteine, and adenosine. The remaining nine measures were precursors of glutathione or markers of redox metabolism: total cysteine, glutamylcysteine (Glu-Cys), cysteinylglycine (Cys-Gly), total and free reduced glutathione (tGSH and fGSH, respectively), oxidized glutathione (GSSG), the ratios of total and free reduced glutathione to oxidized glutathione (tGSH/GSSG and fGSH/GSSG, respectively; these are indicators of intracellular oxidative stress), and percent oxidized glutathione (a derived measure calculated as 2GSSG/[GSH+2GSSG]).
Fisher Discriminant Analysis. Individuals of the IMAGE study were separated into ASD and TD cohorts using Fisher discriminant analysis (FDA). FDA used the data matrix X of size n×m as input, where n study participants are each defined by m biochemical measurements. Sample information for study participant i was contained in row vector xi (size 1×m) and that participant's value for measurement j is indicated by xi,j. The input matrix X were considered as two matrices XASD and XTD taken to represent the separate samples for the ASD and TD cohorts, respectively, with XASD composed of nASD samples and XTD having nTD samples. […]

“Also recorded” adds a separate entry of the source.

Turning to `Nc1nc(=O)c2c([nH]1)NCC(CNc1ccc(C(=O)N[C@@H](CCC(=O)O)C(=O)O)cc1)N2C=O` (mixture of isomers) [folinic acid, Folinic acid], the “outcome of treatment (cerebrospinal fluid, symptoms and behavior)” value in the assay on ASD-related symptoms (ASD) was “correct certain abnormalities of the cerebrospinal fluid and improve ASD-related symptoms and behavior”.

On to `C/C1=C2/[N-][C@H]([C@H](CC(N)=O)[C@@]2(C)CCC(=O)NC[C@@H](C)OP(=O)([O-])O[C@H]2[C@@H](O)[C@@H](n3cnc4cc(C)c(C)cc43)O[C@@H]2CO)[C@]2(C)N=C(/C(C)=C3N=C(/C=C4N=C1[C@@H](CCC(N)=O)C\4(C)C)[C@@H](CCC(N)=O)[C@]\3(C)CC(N)=O)[C@@H](CCC(N)=O)[C@]2(C)CC(N)=O.[CH3-].[Co+3]` [MeCbl, methylcobalamin], for which the “outcome of open-label and double-blind placebo-controlled studies” value in the assay with ASD-related symptoms (children with ASD) is “improvement in metabolism and ASD-related symptoms”.

With `Nc1nc(=O)c2c([nH]1)NCC(CNc1ccc(C(=O)N[C@@H](CCC(=O)O)C(=O)O)cc1)N2C=O` (mixture of isomers) [HDFA, high-dose folinic acid], in assay [1], the “Post-treatment Type II Error” value is listed as 49.5%, the “change in Type II error / correction of metabolic abnormalities (in words)” value is on record as “relatively small increase in Type II error”, the “Effect Size (95% CI)” value was found to be 0.17 and the “Change in Type II Error” value is given as “+17.2%”. In assay [1] (bootstrap 95% CI of median change in discriminant score), the “95% CI for the effect size relative to zero (in words)” value is reported as “contained zero”.

With “methylcobalamin (MeCbl) in combination with low-dose folinic acid (LDFA) [MeCbl + LDFA]”, in assay [1], the “Post-treatment Type II Error” value is given as 43.6%, the “change in Type II error / correction of metabolic abnormalities (in words)” value is “greatest correction in ASD-related metabolic abnormalities; also recorded: largest increase in Type II error”, the “Effect Size (95% CI)” value is listed as 0.89 and the “Change in Type II Error” value is listed as “+41.9%”.

On to `C[C@H](O)[C@H](O)[C@H]1CNc2nc(N)[nH]c(=O)c2N1` [BH4, tetrahydrobiopterin], for which, in assay [1], the “Post-treatment Type II Error” value came to 41.1%, the “Effect Size (95% CI)” value amounted to 0.73 and the “Change in Type II Error” value is “+40.8%”.

The record behind these values is patent US11699530B2, “Use of multivariate analysis to assess treatment approaches” (RENSSELAER POLYTECHNIC INSTITUTE, priority 2018, dated 2023).
